The target in experiment [1] is RNA-editing ligase 1, mitochondrial (Trypanosoma brucei brucei, UniProt P86926). Briefly: inhibition of trypanosome RNA editing ligase – biochemical, fluorescence, Trypanosoma brucei, dose response (AID 1117295). In kind it is functional.
Experiment [2] deals with Intestinal-type alkaline phosphatase (Mus musculus, UniProt P24822). Briefly: PubChem AID 488785. Type of experiment: functional.
Experiment [3] addresses T1, Alkaline phosphatase, tissue-nonspecific isozyme (Homo sapiens, UniProt P05186).
T1 sequence (P05186 whole entry): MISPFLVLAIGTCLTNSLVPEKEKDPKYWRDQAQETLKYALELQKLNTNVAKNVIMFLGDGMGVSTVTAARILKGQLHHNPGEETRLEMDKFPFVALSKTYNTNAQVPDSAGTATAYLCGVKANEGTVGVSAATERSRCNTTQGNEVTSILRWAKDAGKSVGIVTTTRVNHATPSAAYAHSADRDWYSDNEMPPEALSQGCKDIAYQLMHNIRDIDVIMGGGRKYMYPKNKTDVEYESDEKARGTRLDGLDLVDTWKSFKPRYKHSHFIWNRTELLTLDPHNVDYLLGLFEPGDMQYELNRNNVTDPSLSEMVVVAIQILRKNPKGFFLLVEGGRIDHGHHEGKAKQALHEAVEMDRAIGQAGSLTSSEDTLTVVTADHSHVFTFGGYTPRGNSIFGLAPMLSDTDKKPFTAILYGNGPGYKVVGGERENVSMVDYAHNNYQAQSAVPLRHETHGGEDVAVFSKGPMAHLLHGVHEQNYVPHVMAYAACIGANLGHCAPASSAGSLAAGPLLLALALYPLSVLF
Briefly: TNAP enzyme inhibition by screening hits, dose response, selectivity assay for mouse IAP inhibitor project, biochemical, human TNAP, uHTS hits (AID 488906). Type of experiment: functional.

Experiment [4] deals with Intestinal-type alkaline phosphatase (Homo sapiens, UniProt P09923). Briefly: inhibition of human intestinal alkaline phosphatase – biochemical, dose response (AID 488876). In kind it is functional.
Experiment [5] is described as follows: rise of 4N DNA cells, HeLa – IC50, dose response (AID 1117351). Type of experiment: functional, cell-based.
The nature of experiment [6]: rise of 2N DNA cells, HeLa – IC50, dose response (AID 1117349). Type of experiment: functional, cell-based.
Experiment [7] in a line: CTGF mRNA reduction in DLD1 cells – cell-based, DLD1 colon cancer, RT-qPCR, cherry-pick, dose response (AID 1053122). Particulars: Cancer cell lines. In kind it is functional.
Experiment [8] is described as follows: YAP1 overexpression rescue of CTGF inhibition – DLD1 cells, RT-qPCR, cherry-pick, mechanism study for YAP1 pathway inhibitor project, dose response (AID 1053127). Particulars: DLD-1. Type of experiment: functional, cell-based. For orientation: Quantitative PCR measures a nucleic acid by following its amplification.
Experiment [9] addresses T2, Low molecular weight phosphotyrosine protein phosphatase (Homo sapiens, UniProt P24666).
T2 sequence (P24666 whole entry): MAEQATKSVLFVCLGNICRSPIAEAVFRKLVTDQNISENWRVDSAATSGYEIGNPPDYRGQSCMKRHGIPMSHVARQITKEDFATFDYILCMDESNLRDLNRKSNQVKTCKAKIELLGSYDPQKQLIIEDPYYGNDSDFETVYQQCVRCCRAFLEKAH
Briefly: inhibition of LMPTP-A enzymatic activity – biochemical, OMFP substrate, fluorescence intensity, set 2, dose response (AID 743307). Type of experiment: functional.

In experiment [10] the target is T2, Low molecular weight phosphotyrosine protein phosphatase. Briefly: inhibition of human LMPTP enzyme activity – biochemical, absorbance, pNPP substrate, LMPTP-A isoform, set 2, orthogonal assay, dose response (AID 743308). In kind it is functional.
Experiment [11] concerns the target Mitogen-activated protein kinase 10 (Homo sapiens, UniProt P53779). Briefly: Dose response biochemical screening assay for inhibitors of c-Jun N-Terminal Kinase 3 (JNK3). [Related pubchem assays: 746 ].
A short description of experiment [12]: growth inhibition of PfATP4-mutant resistant parasites – NITD609-resistant line, SYBR Green, dry powder, dose response (AID 1159571).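 Further: parasites synchronized at ring stage by sorbitol before testing.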 In kind it is functional, cell-based.
Experiment [13] in a line: growth inhibition of yeast DHODH-expressing 3D7 parasites – SYBR Green, dry powder samples, dose response (AID 1159570).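 Further: parasite growth measured after 72 hours of compound exposure.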 In kind it is functional, cell-based.
Experiment [14] is described as follows: P. falciparum Dd2 growth inhibitors, dose response, SYBR Green, cherry-picked samples (AID 1159567). Type of experiment: functional, cell-based.
The nature of experiment [15]: toxicity to human HepG2 hepatoma cells – cell-based, plate reader, dry powder samples, cytotoxicity control, dose response (AID 1159569).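 Further: inhibitor potency with signal falling toward the positive control level.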 In kind it is functional.
A short description of experiment [16]: Dd2 malaria parasite growth inhibition potency – SYBR Green, dry powder samples, dose response (AID 1159566).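 Further: potency for growth inhibition with lower SYBR green DNA signal.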 In kind it is functional, cell-based.
Experiment [17] can be described thus: Plasmodium falciparum Dd2 Sybr green parasite growth Measured in Cell-Based and Microorganism Combination System Using Plate Reader - 2153-01_Inhibitor_Dose_DryPowder_Activity_Set3. Type of experiment: functional.

The term IC50 denotes the concentration needed to halve the response being measured. One may read the AC50 as the concentration giving half of the maximal activity seen.

Activity calls are given as the source filed them. Bounds are passed on as bounds.

Mitogen-activated protein kinase 10, sequence (P53779 whole entry): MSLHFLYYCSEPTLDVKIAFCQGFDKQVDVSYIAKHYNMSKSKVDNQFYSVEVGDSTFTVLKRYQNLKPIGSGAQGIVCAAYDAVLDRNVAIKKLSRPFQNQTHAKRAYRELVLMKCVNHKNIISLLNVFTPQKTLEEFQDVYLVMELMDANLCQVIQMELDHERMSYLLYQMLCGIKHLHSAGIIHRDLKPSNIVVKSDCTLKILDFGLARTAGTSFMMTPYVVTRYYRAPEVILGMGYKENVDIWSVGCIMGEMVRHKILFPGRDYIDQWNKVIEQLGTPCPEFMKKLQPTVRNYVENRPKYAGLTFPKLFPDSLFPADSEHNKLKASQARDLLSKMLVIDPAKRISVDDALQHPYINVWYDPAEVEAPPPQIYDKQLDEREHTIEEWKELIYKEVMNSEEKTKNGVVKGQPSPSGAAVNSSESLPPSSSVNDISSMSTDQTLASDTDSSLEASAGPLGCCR
RNA-editing ligase 1, mitochondrial, sequence (P86926 whole entry): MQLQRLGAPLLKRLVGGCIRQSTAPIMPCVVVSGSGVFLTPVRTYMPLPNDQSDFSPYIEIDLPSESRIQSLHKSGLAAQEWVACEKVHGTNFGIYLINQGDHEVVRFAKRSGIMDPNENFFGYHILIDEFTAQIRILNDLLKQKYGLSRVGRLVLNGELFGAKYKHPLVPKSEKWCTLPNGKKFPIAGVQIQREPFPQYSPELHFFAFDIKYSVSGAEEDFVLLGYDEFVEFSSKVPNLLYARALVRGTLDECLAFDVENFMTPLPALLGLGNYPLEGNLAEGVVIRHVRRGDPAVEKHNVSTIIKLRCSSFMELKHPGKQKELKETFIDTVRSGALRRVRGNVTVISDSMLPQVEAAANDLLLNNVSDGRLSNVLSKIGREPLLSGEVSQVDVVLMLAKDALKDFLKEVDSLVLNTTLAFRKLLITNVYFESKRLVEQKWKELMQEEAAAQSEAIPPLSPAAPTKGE
Intestinal-type alkaline phosphatase (Homo sapiens, UniProt P09923), sequence (P09923 whole entry): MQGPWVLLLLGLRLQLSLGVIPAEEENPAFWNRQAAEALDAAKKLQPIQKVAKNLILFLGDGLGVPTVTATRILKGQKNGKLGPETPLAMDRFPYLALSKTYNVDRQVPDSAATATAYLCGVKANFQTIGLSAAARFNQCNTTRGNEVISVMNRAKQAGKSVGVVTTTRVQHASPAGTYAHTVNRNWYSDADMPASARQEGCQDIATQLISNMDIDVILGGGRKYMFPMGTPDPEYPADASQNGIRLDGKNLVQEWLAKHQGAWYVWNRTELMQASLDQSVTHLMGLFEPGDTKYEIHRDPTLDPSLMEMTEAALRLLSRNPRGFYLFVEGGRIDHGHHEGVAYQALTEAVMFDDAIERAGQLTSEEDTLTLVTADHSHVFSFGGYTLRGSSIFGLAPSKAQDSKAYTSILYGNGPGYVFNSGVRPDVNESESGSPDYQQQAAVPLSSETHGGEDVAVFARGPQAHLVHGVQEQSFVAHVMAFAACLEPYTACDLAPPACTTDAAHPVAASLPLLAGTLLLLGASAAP
Intestinal-type alkaline phosphatase (Mus musculus, UniProt P24822), sequence (P24822 whole entry): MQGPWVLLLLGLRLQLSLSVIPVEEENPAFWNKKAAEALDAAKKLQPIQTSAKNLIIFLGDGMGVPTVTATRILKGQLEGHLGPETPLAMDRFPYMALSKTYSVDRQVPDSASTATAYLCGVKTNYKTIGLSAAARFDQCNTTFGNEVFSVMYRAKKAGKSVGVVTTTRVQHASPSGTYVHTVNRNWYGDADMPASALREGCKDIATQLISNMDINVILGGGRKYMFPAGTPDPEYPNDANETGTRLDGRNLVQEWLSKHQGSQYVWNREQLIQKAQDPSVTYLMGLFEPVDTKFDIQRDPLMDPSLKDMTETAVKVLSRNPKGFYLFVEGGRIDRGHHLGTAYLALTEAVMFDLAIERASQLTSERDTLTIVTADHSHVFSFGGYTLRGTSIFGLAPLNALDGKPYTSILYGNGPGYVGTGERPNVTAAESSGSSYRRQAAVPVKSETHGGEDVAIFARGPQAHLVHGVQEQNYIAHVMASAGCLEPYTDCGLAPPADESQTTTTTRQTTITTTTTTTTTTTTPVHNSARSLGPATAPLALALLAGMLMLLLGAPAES

As to `N#Cc1c(SCC(=O)Nc2nccs2)sc2c(O)cc(O)nc12`, the IC50 in experiment [1] is 35.5 µM (inactive); in experiment [2], 0.485 µM (active); in experiment [3], > 100 µM (inactive); in experiment [4], > 100 µM (inactive).
As for `CC[C@]1(O)C[C@H]2CN(CCc3c([nH]c4ccccc34)[C@@](C(=O)OC)(c3cc4c(cc3OC)N(C=O)[C@H]3[C@@](O)(C(=O)OC)[C@H](OC(C)=O)[C@]5(CC)C=CCN6CC[C@]43[C@@H]65)C2)C1` [VINCRISTINE], the IC50 in experiment [5] was 0.0059 µM (active); in experiment [6] it was 0.0062 µM (active).
With `O=C(Cc1ccncc1)N1CCCCN2[C@H](CO)[C@H](c3ccc(C#Cc4ccccc4F)cc3)[C@@H]2C1`, the values for the half-maximal activity concentration (AC50) in experiment [7] and in [8] were 5.41 µM (active) and 7.5 µM (active), respectively.
With `Fc1ccc2nc(-c3ccccc3)cc(NCCCN3CCCCC3)c2c1`, the figures for the IC50 in experiment [9] and in [10] were 22 µM (inactive) and 21 µM (inactive), respectively.
For `COC(=O)c1ccc(Cn2c(O)c(N=O)c3ccccc32)o1`, in experiment [11], the IC50 was > 31 µM (not active).
Regarding `COc1ccccc1-c1ccc([C@@H]2[C@@H](C#N)N[C@@H]2CO)cc1`, the AC50 in experiment [12] is 0.946 µM (active); in experiment [13], 3.22 µM (active); in [14], 3.02 µM (active); in experiment [15] it was > 100 µM (inactive); in experiment [16], 0.907 µM (active); in experiment [17] it was 6.32 µM (active).
